Laboratory results reported in patent US20240009150A1, “CAPSAICYNS IN THE TREATMENT OF LEAKY GUT” (AXICHEM AB [SE]/[SE], priority 2020, published 2024).

System: Salmonella enterica subsp. enterica serovar Paratyphi C (ATCC® BAA1714™)
Assay: Inhibition of biofilm formation with different capsaicyn compounds, crystal violet staining assay (Example 6)
Format: cell-based
Conditions: for Biofilm (OD 595 nm): 24 hr, 30° C.
Description: Biofilm formation was quantified with modifications using the method described by Stepanovic et al. (Journal of Microbiological Methods, 2000, 40(2), 175-19) with modifications. Using a 96-well microplate duplicate the test solutions were filled at the above selected doses. Cultures were grown for 18 hr in LB at 30° C. and adjusted to OD 0.1 at 600 nm. 20 μL of the culture were added into each well and the remainder of the volume to 200 μL per well was filled with LB. Unused external wells were filled with 200 μL of sterile water to prevent evaporation.
After 24 hr of incubation, supernatants were discarded, and the wells were washed three times with 200 μL of sterile phosphate buffered saline (PBS). Bacteria adhered to the wells were fixed with 200 μL of methanol for 15 min, the methanol was discarded, and the plates dried at 25° C.
Each well was stained with 200 μL of 0.3% (w/v) crystal violet solution for 5 min at 25° C. Crystal violet excess was pipetted out, and the wells were rinsed five times with sterile PBS. 200 μL of 33% (v/v) glacial acetic acid were added to the wells for 30 min to solubilise the dye adhered to the cell walls. Optical density (OD) was measured at 595 nm using a microplate spectrophotometer as a direct measure of biofilm formation. P. aeruginosa in 3% DMSO will be used as the negative control.
A stock solution of 500 μg of phenylcapsaicin, capsaicin, compound a, compound b, compound c, was prepared by dissolving 500 μg in 100 μl of ethanol and 900 μl of sterile water. The stock solutions were sequentially diluted with quadruple volumes of solvent (10% aqueous ethanol solution) to yield 125/31.25 (32)/7.81 (8)/1.95 (2) μg/ml test solutions.
ATCC® BAA1714™ was used to determine the biofilm inhibition activity. Inducer N-hexanoyl homoserine lactone (C6-HSL) was purchased from Sigma-Aldrich. ATCC® BAA1714™ was cultivated in Luria-Bertani (LB) medium (LB, 5 g yeast extract, 10 g tryptone, 5 g NaCl, 1 L water) at 37° C. overnight under aerobic conditions.
Crystal violet staining assay was performed as in Experiment 3, using ATCC® BAA1714™ in 3% DMSO as the control.

[1] = any dose tested (125, 32, 8, 2 μg/ml)

## COc1cc(CNC(=O)CCCCC#CC(C)(C)C)ccc1O [compound b]
2 μg/mL
  Biofilm (OD 595 nm): 8.1 OD 595 nm
8 μg/mL
  Biofilm (OD 595 nm): 7.9 OD 595 nm
32 μg/mL
  Biofilm (OD 595 nm): 8.2 OD 595 nm
125 μg/mL
  Biofilm (OD 595 nm): 8.8 OD 595 nm
[1]
  biofilm formation inhibition activity, in words: did not show biofilm formation inhibition activity

## COc1cc(CNC(=O)CCCCC#CC2CCCCC2)ccc1O [compound a]
2 μg/mL
  Biofilm (OD 595 nm): 6.5 OD 595 nm
2 μg/ml dose
  biofilm formation inhibition activity relative to the activity of phenylcapsaicin: ~33%
  biofilm formation inhibition activity, in words: modest biofilm formation inhibition activity
8 μg/mL
  Biofilm (OD 595 nm): 6.8 OD 595 nm
32 μg/mL
  Biofilm (OD 595 nm): 7.1 OD 595 nm
125 μg/mL
  Biofilm (OD 595 nm): 8.2 OD 595 nm

## COc1cc(CNC(=O)CCCCC#CC(C)(C)C)ccc1OC(C)=O [compound c]
2 μg/mL
  Biofilm (OD 595 nm): 8.0 OD 595 nm
8 μg/mL
  Biofilm (OD 595 nm): 8.6 OD 595 nm
32 μg/mL
  Biofilm (OD 595 nm): 8.5 OD 595 nm
125 μg/mL
  Biofilm (OD 595 nm): 8.7 OD 595 nm
[1]
  biofilm formation inhibition activity, in words: did not show biofilm formation inhibition activity
